For 32 compounds, IC50 results are on record in patent EP4714952A1, “COMPOUND AND USE THEREOF” (Autobio Group Co., Ltd., priority 2023, dated 2025).

Series [1] concerns the target T1, PDE3A (Homo sapiens, UniProt Q14432).
T1 construct: purchased BPS
In words: In vitro inhibitory effect on PDE3A enzyme (AMP-Glo assay). In kind it is biochemical. As for the experimental part: (§1) 1. Table 1 Main reagents and consumables for in vitro detection of inhibitory effect
(§2) 2. Preparation of experimental buffers Reaction buffer (5×): 50 mM Tris-HCl (buffer), 50 mM MgCl2, 0.5% BSA, 0.25% Tween-20, pH 7.4, stored at -20°C. 3. […] The starting concentration of the reference substance serial dilution was the Low control, and 1% DMSO-reaction buffer served as the High control. • 3) The enzyme was diluted to the desired concentration with 1× reaction buffer, and 4 µL of the diluted solution was transferred to the assay plate. After centrifugation, the 384-well low dead-volume microplate was sealed with sealing film and incubated in the incubator at 23°C for 15 minutes. • 4) The substrate cAMP was diluted to the desired concentration using 1× reaction buffer, and 5 µL of the diluted solution was transferred to the assay plate. After centrifugation, the plate was sealed again and incubated in the incubator at 23°C for 60 minutes (PDE3A) or 10 minutes (PDE4B1). • 5) Then, 5 µL of Reagent I from the AMP-Glo™ Assay Kit was added to the assay plate. After centrifugation and sealing, the plate was incubated in the incubator at 23°C for 60 minutes. • 6) The detection solution was prepared according to the AMP-Glo™ Assay Kit instructions, and 10 µL of the detection solution was added to the assay plate. After centrifugation and sealing, the plate was incubated in the incubator at 23°C for 60 minutes. • 7) The readout was recorded using a multimode microplate reader. 4. […] 5.

Series [2] concerns the target T2, PDE4B1 (Homo sapiens, UniProt Q07343).
T2 construct: purchased Sigma
In words: In vitro inhibitory effect on PDE4B1 enzyme (AMP-Glo assay). In kind it is biochemical. As for the experimental part: as §1, §2

Series [3] addresses CYP2C19 (Homo sapiens, UniProt P33261). In words: In vitro CYP inhibition in human liver microsomes, CYP2C19.
Method: (§3) 1.1 Working solutions (100×) of sample compounds and standard inhibitors were prepared.
(§4) 1.2 Microsomes were removed from a -80°C refrigerator, thawed on ice, labeled with the date, and stored in the refrigerator immediately after use.
(§5) 1.3 20 µL of substrate solution was added to the corresponding wells, while 20 µL of PB (phosphate buffer) was added to the blank wells.
(§6) 1.4 2 µL of sample compound solution and positive control working solution were added to the appropriate wells, while 2 µL of solvent was added to inhibitor-free wells and blank wells.
(§7) 1.5 HLM (human liver microsome) working solution was prepared.
(§8) 1.6 158 µL of HLM working solution was added to all wells of the plate.
(§9) 1.7 The plate was pre-incubated in a 37°C water bath for approximately 10 minutes.
(§10) 1.8 NADPH (nicotinamide adenosine denucleotide hydro-phosphoric acid, i.e. reduced form coenzyme II) cofactor solution was prepared.
(§11) 1.9 20 µL of NADPH cofactor solution was added to all incubation wells.
(§12) 1.10 The solution was mixed and the plate was placed in 37°C water bath to incubate CYP for 10 minutes.
(§13) 1.11 At designated time points, the reaction was terminated by adding 400 µL of cold stopping solution.
(§14) 1.13 200 µL of the supernatant was transferred into 100 µL of HPLC-grade water and vortexed for 10 minutes.
(§15) 1.14 Samples were subjected to LC/MS/MS analysis.
(§16) Concentration-inhibition percentage curves of the control compound and test compounds were plotted using XL Fit or SigmaPlot, followed by nonlinear regression analysis.
(§17) IC50 values were determined using a 3 or 4 parameter logistic equation.
Series [4] has as its target CYP2C9 (Homo sapiens, UniProt P11712). In words: In vitro CYP inhibition in human liver microsomes, CYP2C9.
Method: as §3, §4, §5, §6, §7, §8, §9, §10, §11, §12, §13, §14, §15, §16, §17
The target of series [5] is CYP3A-M (Homo sapiens, UniProt P08684). In words: In vitro CYP inhibition in human liver microsomes, CYP3A-M.
Method: as §3, §4, §5, §6, §7, §8, §9, §10, §11, §12, §16, §17
Series [6] deals with CYP1A2 (Homo sapiens, UniProt P05177). Briefly: In vitro CYP inhibition in human liver microsomes, CYP1A2.
Method: as §3, §4, §5, §6, §7, §8, §9, §10, §11, §12, §13, §14, §15, §16, §17
The target of series [7] is CYP2D6 (Homo sapiens, UniProt P10635). Briefly: In vitro CYP inhibition in human liver microsomes, CYP2D6.
Method: as §3, §4, §5, §6, §7, §8, §9, §10, §11, §12, §13, §14, §15, §16, §17
Setting [8] is: AMP-Glo Assay Kit, substrate cAMP, 23°C, 60 minutes, read-out: PDE3A (IC50).
Setting [9] is: AMP-Glo Assay Kit, substrate cAMP, 23°C, 10 minutes, read-out: PDE4B1 (IC50).

Like-named read-outs stand apart in the source and are kept apart here.

CYP2C9, sequence (P11712 whole entry): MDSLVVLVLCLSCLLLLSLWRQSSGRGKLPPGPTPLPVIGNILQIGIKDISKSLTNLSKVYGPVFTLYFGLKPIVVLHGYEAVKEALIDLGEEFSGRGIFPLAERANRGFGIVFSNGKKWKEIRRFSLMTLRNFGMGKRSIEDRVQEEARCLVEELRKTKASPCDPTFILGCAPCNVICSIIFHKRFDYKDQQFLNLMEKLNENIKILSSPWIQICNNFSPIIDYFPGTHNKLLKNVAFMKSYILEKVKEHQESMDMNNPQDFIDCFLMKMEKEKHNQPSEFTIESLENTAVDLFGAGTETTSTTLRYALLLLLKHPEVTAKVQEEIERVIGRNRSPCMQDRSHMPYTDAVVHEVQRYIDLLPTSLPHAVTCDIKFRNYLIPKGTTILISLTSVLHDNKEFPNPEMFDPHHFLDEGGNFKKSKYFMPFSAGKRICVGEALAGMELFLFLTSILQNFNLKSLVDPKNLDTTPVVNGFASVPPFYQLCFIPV
T1 sequence (Q14432 whole entry): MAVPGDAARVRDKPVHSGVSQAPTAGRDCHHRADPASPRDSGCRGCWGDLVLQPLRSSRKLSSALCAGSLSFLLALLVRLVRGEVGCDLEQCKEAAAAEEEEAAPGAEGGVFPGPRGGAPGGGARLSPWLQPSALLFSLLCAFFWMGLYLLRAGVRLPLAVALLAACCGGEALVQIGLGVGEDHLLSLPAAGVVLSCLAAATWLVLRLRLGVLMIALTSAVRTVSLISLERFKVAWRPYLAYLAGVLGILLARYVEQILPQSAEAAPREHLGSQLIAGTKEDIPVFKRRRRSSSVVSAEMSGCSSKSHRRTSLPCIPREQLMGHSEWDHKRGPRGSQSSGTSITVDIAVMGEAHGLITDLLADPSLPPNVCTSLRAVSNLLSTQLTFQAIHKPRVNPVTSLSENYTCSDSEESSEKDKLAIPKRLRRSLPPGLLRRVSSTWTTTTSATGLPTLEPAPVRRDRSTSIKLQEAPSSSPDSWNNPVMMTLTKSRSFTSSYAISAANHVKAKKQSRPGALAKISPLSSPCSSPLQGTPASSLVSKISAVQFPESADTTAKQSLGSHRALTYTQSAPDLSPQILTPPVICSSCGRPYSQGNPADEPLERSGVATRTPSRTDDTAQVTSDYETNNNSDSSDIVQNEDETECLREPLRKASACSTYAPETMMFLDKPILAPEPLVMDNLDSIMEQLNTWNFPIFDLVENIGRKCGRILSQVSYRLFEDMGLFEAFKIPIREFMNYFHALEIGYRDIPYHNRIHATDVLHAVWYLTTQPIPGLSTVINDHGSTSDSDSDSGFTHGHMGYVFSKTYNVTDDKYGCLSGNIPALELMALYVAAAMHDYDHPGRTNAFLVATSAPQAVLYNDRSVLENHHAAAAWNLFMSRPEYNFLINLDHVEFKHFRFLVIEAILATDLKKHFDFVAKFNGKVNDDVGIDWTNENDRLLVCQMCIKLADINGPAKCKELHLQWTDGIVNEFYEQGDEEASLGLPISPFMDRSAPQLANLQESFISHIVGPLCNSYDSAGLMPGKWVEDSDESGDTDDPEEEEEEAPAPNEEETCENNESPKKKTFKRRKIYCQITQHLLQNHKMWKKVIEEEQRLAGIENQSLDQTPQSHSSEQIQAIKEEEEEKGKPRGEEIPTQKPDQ
CYP2D6, sequence (P10635 whole entry): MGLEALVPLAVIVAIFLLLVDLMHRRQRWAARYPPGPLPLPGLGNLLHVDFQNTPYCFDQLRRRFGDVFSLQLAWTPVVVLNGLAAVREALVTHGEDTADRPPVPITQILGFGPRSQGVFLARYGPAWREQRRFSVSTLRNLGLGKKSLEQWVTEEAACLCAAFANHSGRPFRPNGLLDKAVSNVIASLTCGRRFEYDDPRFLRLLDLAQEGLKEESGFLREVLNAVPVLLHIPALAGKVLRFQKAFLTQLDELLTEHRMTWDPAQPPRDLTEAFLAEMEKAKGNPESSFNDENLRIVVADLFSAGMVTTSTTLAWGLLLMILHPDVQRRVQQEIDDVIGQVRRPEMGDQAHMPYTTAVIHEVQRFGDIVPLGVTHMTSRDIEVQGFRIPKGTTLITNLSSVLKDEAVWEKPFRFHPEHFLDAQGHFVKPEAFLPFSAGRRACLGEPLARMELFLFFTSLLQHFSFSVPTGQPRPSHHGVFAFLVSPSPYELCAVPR
CYP3A-M, sequence (P08684 2-503): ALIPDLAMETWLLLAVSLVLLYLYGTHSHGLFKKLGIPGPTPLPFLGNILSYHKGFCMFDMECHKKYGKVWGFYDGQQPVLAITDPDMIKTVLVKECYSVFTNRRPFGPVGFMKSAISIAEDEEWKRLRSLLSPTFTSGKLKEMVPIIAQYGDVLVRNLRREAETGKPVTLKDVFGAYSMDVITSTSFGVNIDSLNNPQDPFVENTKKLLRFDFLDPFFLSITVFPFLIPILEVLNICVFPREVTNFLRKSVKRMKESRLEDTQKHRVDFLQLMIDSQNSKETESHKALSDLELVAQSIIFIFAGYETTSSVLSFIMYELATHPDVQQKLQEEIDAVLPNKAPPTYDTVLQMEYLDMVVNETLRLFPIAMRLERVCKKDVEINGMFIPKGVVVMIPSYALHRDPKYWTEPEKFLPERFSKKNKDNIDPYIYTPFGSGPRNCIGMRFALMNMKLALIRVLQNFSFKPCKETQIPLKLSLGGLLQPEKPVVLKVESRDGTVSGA
CYP1A2, sequence (P05177 whole entry): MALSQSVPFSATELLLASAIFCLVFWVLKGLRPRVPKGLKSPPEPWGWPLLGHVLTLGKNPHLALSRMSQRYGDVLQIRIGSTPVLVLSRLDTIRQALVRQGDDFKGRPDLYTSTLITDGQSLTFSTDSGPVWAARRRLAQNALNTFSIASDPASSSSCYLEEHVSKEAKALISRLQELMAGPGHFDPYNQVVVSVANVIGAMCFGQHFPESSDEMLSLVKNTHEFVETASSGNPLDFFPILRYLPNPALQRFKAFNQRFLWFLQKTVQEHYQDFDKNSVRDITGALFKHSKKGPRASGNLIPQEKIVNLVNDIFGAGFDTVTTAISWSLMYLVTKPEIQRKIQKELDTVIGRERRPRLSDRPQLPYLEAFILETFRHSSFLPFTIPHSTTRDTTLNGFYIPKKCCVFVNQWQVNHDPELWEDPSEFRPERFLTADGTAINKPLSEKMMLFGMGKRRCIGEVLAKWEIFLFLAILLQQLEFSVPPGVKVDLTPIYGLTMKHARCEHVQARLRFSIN
CYP2C19, sequence (P33261 whole entry): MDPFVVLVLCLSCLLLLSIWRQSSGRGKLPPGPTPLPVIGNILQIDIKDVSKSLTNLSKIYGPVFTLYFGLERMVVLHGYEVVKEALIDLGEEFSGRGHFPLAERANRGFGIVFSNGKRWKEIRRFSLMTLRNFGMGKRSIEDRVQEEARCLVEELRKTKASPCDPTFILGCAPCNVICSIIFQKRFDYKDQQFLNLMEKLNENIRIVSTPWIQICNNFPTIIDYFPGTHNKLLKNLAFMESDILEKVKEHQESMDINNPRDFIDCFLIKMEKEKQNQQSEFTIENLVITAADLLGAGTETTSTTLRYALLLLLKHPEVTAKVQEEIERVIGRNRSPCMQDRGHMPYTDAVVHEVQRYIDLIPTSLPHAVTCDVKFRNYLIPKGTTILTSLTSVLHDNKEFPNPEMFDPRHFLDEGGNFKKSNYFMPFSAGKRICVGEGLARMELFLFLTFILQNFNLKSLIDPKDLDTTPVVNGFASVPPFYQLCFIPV
T2 sequence (Q07343 whole entry): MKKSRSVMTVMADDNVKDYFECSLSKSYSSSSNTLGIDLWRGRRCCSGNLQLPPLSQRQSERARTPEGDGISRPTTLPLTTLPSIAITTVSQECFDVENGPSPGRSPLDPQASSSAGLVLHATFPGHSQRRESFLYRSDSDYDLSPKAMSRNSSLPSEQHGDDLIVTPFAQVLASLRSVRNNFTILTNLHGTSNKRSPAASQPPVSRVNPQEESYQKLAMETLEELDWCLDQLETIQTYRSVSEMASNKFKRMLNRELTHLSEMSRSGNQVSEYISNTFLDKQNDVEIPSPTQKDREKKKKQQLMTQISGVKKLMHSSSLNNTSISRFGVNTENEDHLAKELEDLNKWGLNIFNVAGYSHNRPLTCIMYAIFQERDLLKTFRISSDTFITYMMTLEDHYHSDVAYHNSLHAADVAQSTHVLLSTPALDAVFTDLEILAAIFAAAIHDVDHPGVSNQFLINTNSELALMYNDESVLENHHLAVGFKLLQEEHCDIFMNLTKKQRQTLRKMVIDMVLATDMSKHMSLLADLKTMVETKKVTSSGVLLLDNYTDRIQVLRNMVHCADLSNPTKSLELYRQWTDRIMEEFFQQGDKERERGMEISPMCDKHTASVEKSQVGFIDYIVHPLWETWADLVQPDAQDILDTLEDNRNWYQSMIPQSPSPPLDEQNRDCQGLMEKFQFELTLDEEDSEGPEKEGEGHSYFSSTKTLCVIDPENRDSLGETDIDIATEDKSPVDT

As for `COc1cc2c(cc1OC)-c1cc(=Nc3c(C)cc(C)cc3C)n(CCNC(=O)c3cccn(CC(F)(F)F)c3=O)c(=O)n1CC2` [Compound 55], the 50% inhibitory concentration (IC50) in series [1] was 0.49 nM; in series [2] it was 262 nM.

As for `COc1cc2c(cc1OC)-c1cc(N(c3c(C)cc(C)cc3C)C3CN(C(=O)c4nnc[nH]4)C3)nc(=O)n1CC2` [Compound 56], the half-inhibitory concentration (IC50) in series [1] (setting [8]) came out at 0.82 nM; in series [2] (setting [9]) it was 8880 nM.

`CCOc1cc2c(cc1OC)-c1cc(=Nc3c(C)cc(C)cc3C)n(CCNC(=O)c3ccnn(C)c3=O)c(=O)n1CC2` [Compound 59]: the half-inhibitory concentration (IC50) in series [1] was 0.76 nM; in series [2] it was 27.6 nM.

`CCOc1cc2c(cc1OC)-c1cc(N(CCCO)c3c(C)cc(C)cc3C)nc(=O)n1CC2` [Compound 60]: the half-inhibitory concentration (IC50) in series [3] is 42100 nM; in series [4], 3870 nM; in series [1], 0.0033 nM; in series [2] it was 6.3 nM; in series [6] it was greater than 50000 nM; in series [7], greater than 50000 nM. In series [5] (microsomes), this compound registered a half-maximal inhibitory concentration (IC50) at 10 min greater than 50000 nM.

On to `CCOc1cc2c(cc1OC)-c1cc(N(CCC(=O)O)c3c(C)cc(C)cc3C)nc(=O)n1CC2` [Compound 61], for which the half-maximal inhibitory concentration (IC50) in series [3] was greater than 50000 nM; in series [4], greater than 50000 nM; in series [1] it was 0.0061 nM; in series [2] it was 11.1 nM; in series [6] it was greater than 50000 nM; in series [7], greater than 50000 nM. The compound further yielded a concentration for half-maximal inhibition (IC50) at 10 min in series [5] (microsomes) greater than 50000 nM.

In the case of `CCOc1cc2c(cc1OC)-c1cc(N(CCNC(=O)c3ccno3)c3c(C)cc(C)cc3C)nc(=O)n1CC2` [Compound 62], the half-maximal inhibitory concentration (IC50) is 0.055 nM in series [1] (setting [8]) and 2.6 nM in series [2] (setting [9]).

In the case of `CCOc1cc2c(cc1OC)-c1cc(N(CCNC(=O)c3ccccn3)c3c(C)cc(C)cc3C)nc(=O)n1CC2` [Compound 63], the concentration for half-maximal inhibition (IC50) in series [1] (setting [8]) came to 0.042 nM; in series [2] (setting [9]) it was 1.2 nM.

In the case of `CCOc1cc2c(cc1OC)-c1cc(N(CCNC(=O)c3c[nH]nn3)c3c(C)cc(C)cc3C)nc(=O)n1CC2` [Compound 64], the IC50 was determined as 0.019 nM in series [1] (setting [8]) and 8.4 nM in series [2] (setting [9]).

Consider `CCOc1cc2c(cc1OC)-c1cc(N(CCNC(=O)c3nnc(C)o3)c3c(C)cc(C)cc3C)nc(=O)n1CC2` [Compound 65], for which the half-maximal inhibitory concentration (IC50) was 0.036 nM in series [1] (setting [8]) and 10.8 nM in series [2] (setting [9]).

Take `COc1cc2c(cc1OC)-c1cc(=Nc3c(C)cc(C)cc3F)n(CCNC(N)=O)c(=O)n1CC2` [Compound 66]: the IC50 in series [1] turned out to be 0.64 nM; in series [2] it was 268 nM.

Turning to `COc1cc2c(cc1OC)-c1cc(=Nc3c(C)cc(C)cc3C)n(CCNC(=O)NC3CCNCC3)c(=O)n1CC2` [Compound 67], the IC50 in series [1] is 5.49 nM; in series [2], 3800 nM.

With `COc1cc2c(cc1OC)-c1cc(=Nc3c(C)cc(C)cc3C)n(CCNC(=O)N3Cc4cn(C5CC5)nc4C3)c(=O)n1CC2` [Compound 68], the concentration for half-maximal inhibition (IC50) came to 1.82 nM in series [1] and 334 nM in series [2].

In the case of `COc1cc2c(cc1OC)-c1cc(=Nc3c(C)cc(C)cc3C)n(CCNC(=O)OCC(O)CCO)c(=O)n1CC2` (stereo not drawn) [Compound 69], the values for the half-inhibitory concentration (IC50) in series [1] and in series [2] were 1.91 nM and 6750 nM, respectively.

On to `COc1cc2c(cc1OC)-c1cc(=Nc3c(C)cc(C)cc3C)n(CCNC(=O)N3CCOCC3CO)c(=O)n1CC2` (stereo not drawn) [Compound 70], for which the results for the IC50 in series [1] and in series [2] were 1.24 nM and 2830 nM, respectively.

Regarding `CCOc1cc2c(cc1OC)-c1cc(N(CCN3CCN(C(C)=O)CC3)c3c(C)cc(C)cc3C)nc(=O)n1CC2` [Compound 71], the IC50 in series [1] (setting [8]) turned out to be 0.057 nM; in series [2] (setting [9]), 13.2 nM.

As for `CCOc1cc2c(cc1OC)-c1cc(N(CCN3CCS(=O)(=O)CC3)c3c(C)cc(C)cc3C)nc(=O)n1CC2` [Compound 72], the half-inhibitory concentration (IC50) was determined as 0.074 nM in series [1] (setting [8]) and 5 nM in series [2] (setting [9]).

Regarding `CCOc1cc2c(cc1OC)-c1cc(=Nc3c(C)cc(C)cc3C)n(CCN3CCS(=O)(=O)CC3)c(=O)n1CC2` [Compound 73], the half-inhibitory concentration (IC50) in series [1] (setting [8]) worked out at 0.53 nM; in series [2] (setting [9]), 414 nM.

With `CCOc1cc2c(cc1OC)-c1cc(N(CCN3CC(F)C3)c3c(C)cc(C)cc3C)nc(=O)n1CC2` [Compound 74], the IC50 stood at 0.05 nM in series [1] (setting [8]) and 8.1 nM in series [2] (setting [9]).

For `CCOc1cc2c(cc1OC)-c1cc(N(CCO)c3c(C)cc(C)cc3C)nc(=O)n1CC2` [Compound 75], the half-inhibitory concentration (IC50) in series [3] is 30600 nM; in series [4] it was 8310 nM; in series [6], greater than 50000 nM; in series [7] it was greater than 50000 nM. Half-maximal inhibition in series [5] (microsomes) (IC50 at 10 min) required 33200 nM.

As for `CCOc1cc2c(cc1OC)-c1cc(N(CC(=O)O)c3c(C)cc(C)cc3C)nc(=O)n1CC2` [Compound 76], the IC50 in series [1] was determined as 0.1 nM; in series [2], 172 nM.

Take `CCOc1cc2c(cc1OC)-c1cc(N(c3c(C)cc(C)cc3C)C3CN(C(=O)c4[nH]nnc4C)C3)nc(=O)n1CC2` [Compound 77]: the IC50 stood at 24.7 nM in series [1] (setting [8]) and 6730 nM in series [2] (setting [9]).

As to `CCOc1cc2c(cc1OC)-c1cc(N(CCC(N)C(F)(F)F)c3c(C)cc(C)cc3C)nc(=O)n1CC2` (stereo not drawn) [Compound 78], the IC50 in series [1] (setting [8]) stood at 0.027 nM; in series [2] (setting [9]) it was 8.9 nM.

With `CCOc1cc2c(cc1OC)-c1cc(=Nc3c(C)cc(C)cc3C)n(CCC(N)C(F)(F)F)c(=O)n1CC2` (stereo not drawn) [Compound 79], the values for the half-inhibitory concentration (IC50) in series [1] (setting [8]) and in series [2] (setting [9]) were 0.33 nM and 2860 nM, respectively.

For the compound `CCOc1cc2c(cc1OC)-c1cc(N(c3c(C)cc(C)cc3C)C(CO)CO)nc(=O)n1CC2` [Compound 80], the IC50 was 31500 nM in series [3]; 10100 nM in series [4]; 0.0028 nM in series [1]; 7.4 nM in series [2]; greater than 50000 nM in series [6]; greater than 50000 nM in series [7]. In series [5] (microsomes), this compound displayed a half-inhibitory concentration (IC50) at 10 min of 43500 nM.

In the case of `CCOc1cc2c(cc1OC)-c1cc(N(CCCN)c3c(C)cc(C)cc3C)nc(=O)n1CC2` [Compound 81], the IC50 in series [1] (setting [8]) was found to be 0.33 nM; in series [2] (setting [9]), 64.4 nM.

Consider `CCOc1cc2c(cc1OC)-c1cc(N(CCC(=O)NCCO)c3c(C)cc(C)cc3C)nc(=O)n1CC2` [Compound 82], for which the IC50 in series [3] was greater than 50000 nM; in series [4] it was 9350 nM; in series [1] it was 0.088 nM; in series [2], 14.2 nM; in series [6], greater than 50000 nM; in series [7] it was greater than 50000 nM. This compound returned a half-maximal inhibitory concentration (IC50) at 10 min in series [5] (microsomes) of 42800 nM.

`CCOc1cc2c(cc1OC)-c1cc(N(CCNC(=O)N3CCOCC3CO)c3c(C)cc(C)cc3C)nc(=O)n1CC2` (stereo not drawn) [Compound 83]: the results for the 50% inhibitory concentration (IC50) in series [1] (setting [8]) and in series [2] (setting [9]) were 0.043 nM and 37.3 nM, respectively.

Regarding `CCOc1cc2c(cc1OC)-c1cc(N(CCNC(N)=O)c3c(C)cc(C)cc3C)nc(=O)n1CC2` [Compound 84], the IC50 in series [3] was greater than 50000 nM; in series [4], 4520 nM; in series [1] (setting [8]), 0.008 nM; in series [2] (setting [9]), 7.5 nM; in series [6], greater than 50000 nM; in series [7], greater than 50000 nM. The half-maximal inhibitory concentration (IC50) at 10 min in series [5] (human liver microsomes) was greater than 50000 nM.

In the case of `CCOc1cc2c(cc1OC)-c1cc(=Nc3c(C)cc(C)cc3C)n(CCNC(=O)NOC)c(=O)n1CC2` [Compound 85], the IC50 in series [1] was 0.31 nM; in series [2], 40.5 nM.

On to `CCOc1cc2c(cc1OC)-c1cc(N(CCNC(=O)NOC)c3c(C)cc(C)cc3C)nc(=O)n1CC2` [Compound 86], for which the 50% inhibitory concentration (IC50) in series [3] was 29100 nM; in series [4], 3130 nM; in series [1] (setting [8]), 0.034 nM; in series [2] (setting [9]) it was 7.9 nM; in series [6], greater than 50000 nM; in series [7], 29700 nM. In addition, inhibition in series [5] (human liver microsomes) was half-maximal at 1630 nM (IC50 at 10 min).

Take `CCOc1cc2c(cc1OC)-c1cc(=Nc3c(C)cc(C)cc3C)n(CCCN)c(=O)n1CC2` [Compound 87]: the IC50 in series [1] was determined as 3.02 nM; in series [2] it was 359 nM.

In the case of `COc1cc2c(cc1OC)-c1c/c(=N\c3c(C)cc(C)cc3C)n(CCNC(N)=O)c(=O)n1CC2` [Ensifentrine, reference compound], the IC50 in series [3] is 23200 nM; in series [4], 3520 nM; in series [1] (setting [8]), 0.17 nM; in series [2] (setting [9]), 102 nM; in series [6], greater than 50000 nM; in series [7] it was 41500 nM. This compound yielded an IC50 at 10 min in series [5] (human liver microsomes) of 8600 nM.
